# Data published in article PMC12580772, “A First-in-Human Study of ATM Inhibitor Lartesertib as Monotherapy in Patients with Advanced Solid Tumors” (Clinical Cancer Research, 2025).
# System: patients with advanced solid tumors
# Assay: Phase I dose escalation: safety, tolerability, DLTs and MTD
# Assay type: in vivo
# Protocol: DDRiver Solid Tumors 410 was an open-label, first-in-human, multicenter, phase I study of lartesertib monotherapy, continuously administered once daily, conducted at three study sites in the United States and Canada. Part 1A was a lartesertib monotherapy dose-escalation study designed to evaluate the safety, tolerability, pharmacokinetics (PK), pharmacodynamics (PD), and early signs of efficacy in patients with advanced solid tumors. Patients were treated with lartesertib at increasing dose levels (DLs) ranging from 100 to 400 mg once daily. Each DL included a dose-limiting toxicity (DLT) observation period of 21 days; treatment was continued until disease progression, death, consent withdrawal, unacceptable toxicity, or the end of the study. Additional details are provided under Study Design in the Supplementary Material S1.
# The primary endpoints were the occurrence of DLTs, adverse events (AE), and treatment-related and treatment-emergent AEs (TEAE), along with the occurrence of clinically significant changes in vital signs, laboratory parameters, and 12-lead electrocardiogram findings. The secondary endpoints included PK parameters of lartesertib in plasma after single and multiple doses; establishment of the recommended dose for expansion based on safety, PK, and PD data; absolute and relative changes overtime from baseline in ATM pathway readouts assessed by flow cytometry and immunohistochemistry; and objective response, duration of response, and progression-free survival (PFS) according to the RECIST version 1.1, as assessed by the investigator. Exploratory endpoints included the correlation of baseline and on-treatment biomarkers with response to lartesertib treatment as well as relative changes in total blood cell count, immune cells, and circulatory factors during exposure to lartesertib.
# The DLT analysis set included all patients who received ≥80% of the planned cumulative dose during the DLT period (Period 1) and had completed the DLT period, or patients who experienced ≥1 DLT during the DLT period, regardless of the number of lartesertib doses administered. Additional details on all analysis sets are provided in the Supplementary Material S1. Analyses to determine dose escalation were performed on the DLT analysis set and were based on available safety and PK data. A Bayesian two-parameter logistic regression model (BLRM) was applied to assist the safety monitoring committee in dose recommendations during lartesertib dose escalation. For the determination of the MTD, posterior probabilities (2.5%, 25%, 50%, 75%, and 97.5% quantiles) for DLT rates at selected doses were estimated by a BLRM. The target toxicity of the model for MTD was set at 30%.
# AEs and diseases were coded according to the Medical Dictionary for Regulatory Activities (RRID: SCR_003751) version 25.1 (until 30 days after the last study treatment). The severity of AEs was graded using the NCI Common Terminology Criteria for Adverse Events (RRID: SCR_010296) version 5.0.
# Part 1A was a lartesertib monotherapy dose-escalation designed to determine the safety, tolerability, pharmacokinetics (PK), pharmacodynamics (PD), and early signs of efficacy in participants with solid tumors. For each patient, the study included a Screening period lasting up to 28 days and the estimated total duration in the study was an approximate of 105 days/15 weeks. Patients were treated with lartesertib orally as a tablet, at doses ranging from 100 to 400 mg once daily (QD) under a fasting condition of 2 hours pre-dose to 1-hour post-dose in general, and 2 hours pre-dose to 4 hours post-dose on days where PK-time matched triplicate ECG were collected. Patients were treated until disease progression, death, adverse events (AEs) leading to discontinuation of study intervention(s), or withdrawal of consent, whichever occurred first, or end of study. […]
smiles,measurement,setting,value
COc1cc2ncc3c(c2cc1-c1cn(C)nc1C)n(-c1c(F)cncc1OC)c(=O)n3C [lartesertib],Any TEAE leading to death,100 mg n = 2,0 (0.0) n (%)
same,Any lartesertib-related TEAE leading to death,100 mg n = 2,0 (0.0) n (%)
same,TEAE: Urinary tract infection,100 mg n = 2,0 (0.0) n (%)
same,Any TEAE leading to death,200 mg n = 7,0 (0.0) n (%)
same,Any lartesertib-related TEAE leading to death,200 mg n = 7,0 (0.0) n (%)
same,TEAE: Urinary tract infection,200 mg n = 7,1 (14.3) n (%)
same,Any TEAE leading to death,300 mg n = 9,0 (0.0) n (%)
same,Any lartesertib-related TEAE leading to death,300 mg n = 9,0 (0.0) n (%)
same,TEAE: Urinary tract infection,300 mg n = 9,1 (11.1) n (%)
same,Any TEAE leading to death,400 mg n = 4,0 (0.0) n (%)
same,Any lartesertib-related TEAE leading to death,400 mg n = 4,0 (0.0) n (%)
same,TEAE: Urinary tract infection,400 mg n = 4,2 (50.0) n (%)
same,Any TEAE leading to death,Total N = 22,0 (0.0) n (%)
same,Any lartesertib-related TEAE leading to death,Total N = 22,0 (0.0) n (%)
same,TEAE: Urinary tract infection,Total N = 22,4 (18.2) n (%)
same,"Abdominal pain, Grade ≥3","human, in vivo",1 (4.5) n (%)
same,"Abdominal pain, Grade ≥4","human, in vivo",0 (0.0) n (%)
same,"Abdominal pain, Grade ≥5","human, in vivo",0 (0.0) n (%)
same,"Alanine aminotransferase increased, Grade ≥3","human, in vivo",2 (9.2) n (%)
same,"Alanine aminotransferase increased, Grade ≥4","human, in vivo",0 (0.0) n (%)
same,"Alanine aminotransferase increased, Grade ≥5","human, in vivo",0 (0.0) n (%)
same,"Anemia, Grade ≥3","human, in vivo",4 (18.2) n (%)
same,"Anemia, Grade ≥4","human, in vivo",0 (0.0) n (%)
same,"Anemia, Grade ≥5","human, in vivo",0 (0.0) n (%)
same,Any AESI cytopenia,"human, in vivo",4 (18.2) n (%)
same,"Any AESI cytopenia, Grade ≥3 (all anemia events)","human, in vivo",4 (18.2) n (%)
same,Any TEAE,"human, in vivo",22 (100.0) n (%)
same,Any TEAE leading to permanent treatment discontinuation,"human, in vivo",5 (22.7) n (%)
same,Any TEAE leading to temporary treatment discontinuation,"human, in vivo",5 (22.7) n (%)
same,"Any TEAE, Grade ≥3","human, in vivo",13 (59.1) n (%)
same,"Any TEAE, Grade ≥4","human, in vivo",1 (4.5) n (%)
same,Any lartesertib-related TEAE,"human, in vivo",15 (68.2) n (%)
same,"Any lartesertib-related TEAE, Grade ≥3","human, in vivo",4 (18.2) n (%)
same,"Any lartesertib-related TEAE, Grade ≥4","human, in vivo",1 (4.5) n (%)
same,Any lartesertib-related serious TEAE,"human, in vivo",2 (9.1) n (%)
same,Any serious TEAE,"human, in vivo",9 (40.9) n (%)
same,"Aspartate aminotransferase increased, Grade ≥3","human, in vivo",3 (13.6) n (%)
same,"Aspartate aminotransferase increased, Grade ≥4","human, in vivo",0 (0.0) n (%)
same,"Aspartate aminotransferase increased, Grade ≥5","human, in vivo",0 (0.0) n (%)
same,"Blood alkaline phosphatase increased, Grade ≥3","human, in vivo",1 (4.5) n (%)
same,"Blood alkaline phosphatase increased, Grade ≥4","human, in vivo",0 (0.0) n (%)
same,"Blood alkaline phosphatase increased, Grade ≥5","human, in vivo",0 (0.0) n (%)
same,"Blood and lymphatic system disorders, Grade ≥3","human, in vivo",4 (18.2) n (%)
same,"Blood and lymphatic system disorders, Grade ≥4","human, in vivo",0 (0.0) n (%)
same,"Blood and lymphatic system disorders, Grade ≥5","human, in vivo",0 (0.0) n (%)
same,"Blood bilirubin increased, Grade ≥3","human, in vivo",1 (4.5) n (%)
same,"Blood bilirubin increased, Grade ≥4","human, in vivo",0 (0.0) n (%)
same,"Blood bilirubin increased, Grade ≥5","human, in vivo",0 (0.0) n (%)
same,"Decreased appetite, Grade ≥3","human, in vivo",1 (4.5) n (%)
same,"Decreased appetite, Grade ≥4","human, in vivo",0 (0.0) n (%)
same,"Decreased appetite, Grade ≥5","human, in vivo",0 (0.0) n (%)
same,"Decreased neutrophil count, grade 1 or 2","human, in vivo",4.5%
same,"Decreased platelet count, grade 1 or 2","human, in vivo",4.5%
same,"Decreased white blood cell count, grade 1 or 2","human, in vivo",4.5%
same,"Dehydration, Grade ≥3","human, in vivo",1 (4.5) n (%)
same,"Dehydration, Grade ≥4","human, in vivo",0 (0.0) n (%)
same,"Dehydration, Grade ≥5","human, in vivo",0 (0.0) n (%)
same,"Gamma-glutamyltransferase increased, Grade ≥3","human, in vivo",1 (4.5) n (%)
same,"Gamma-glutamyltransferase increased, Grade ≥4","human, in vivo",0 (0.0) n (%)
same,"Gamma-glutamyltransferase increased, Grade ≥5","human, in vivo",0 (0.0) n (%)
same,"Gastrointestinal disorders, Grade ≥3","human, in vivo",3 (13.6) n (%)
same,"Gastrointestinal disorders, Grade ≥4","human, in vivo",0 (0.0) n (%)
same,"Gastrointestinal disorders, Grade ≥5","human, in vivo",0 (0.0) n (%)
same,Grade ≥3 anemia,"human, in vivo",18.2%
same,Grade ≥3 decreased lymphocyte count,"human, in vivo",13.6%
same,Grade ≥3 increased aspartate aminotransferase,"human, in vivo",13.6%
same,Grade ≥3 maculopapular rash,"human, in vivo",13.6%
same,"Immune system disorders, Grade ≥3","human, in vivo",1 (4.5) n (%)
same,"Immune system disorders, Grade ≥4","human, in vivo",1 (4.5) n (%)
same,"Immune system disorders, Grade ≥5","human, in vivo",0 (0.0) n (%)
same,"Investigations, Grade ≥3","human, in vivo",6 (27.3) n (%)
same,"Investigations, Grade ≥4","human, in vivo",0 (0.0) n (%)
same,"Investigations, Grade ≥5","human, in vivo",0 (0.0) n (%)
same,Lartesertib-related TEAE: Aspartate aminotransferase increased,"human, in vivo",3 (13.6) n (%)
same,Lartesertib-related TEAE: Blood creatinine increased,"human, in vivo",3 (13.6) n (%)
same,Lartesertib-related TEAE: Diarrhea,"human, in vivo",4 (18.2) n (%)
same,Lartesertib-related TEAE: Headache,"human, in vivo",3 (13.6) n (%)
same,Lartesertib-related TEAE: Maculopapular rash,"human, in vivo",5 (22.7) n (%)
same,Lartesertib-related TEAE: Nausea,"human, in vivo",5 (22.7) n (%)
same,Lartesertib-related TEAE: Pyrexia,"human, in vivo",6 (27.3) n (%)
same,"Lymphocyte count decreased, Grade ≥3","human, in vivo",3 (13.6) n (%)
same,"Lymphocyte count decreased, Grade ≥4","human, in vivo",0 (0.0) n (%)
same,"Lymphocyte count decreased, Grade ≥5","human, in vivo",0 (0.0) n (%)
same,"Maculopapular rash, Grade ≥3","human, in vivo",3 (13.6) n (%)
same,"Maculopapular rash, Grade ≥4","human, in vivo",0 (0.0) n (%)
same,"Maculopapular rash, Grade ≥5","human, in vivo",0 (0.0) n (%)
same,"Metabolism and nutrition disorders, Grade ≥3","human, in vivo",1 (4.5) n (%)
same,"Metabolism and nutrition disorders, Grade ≥4","human, in vivo",0 (0.0) n (%)
same,"Metabolism and nutrition disorders, Grade ≥5","human, in vivo",0 (0.0) n (%)
same,"Nausea, Grade ≥3","human, in vivo",2 (9.1) n (%)
same,"Nausea, Grade ≥4","human, in vivo",0 (0.0) n (%)
same,"Nausea, Grade ≥5","human, in vivo",0 (0.0) n (%)
same,Patients with at least one TEAE,"human, in vivo",100%
same,Patients with at least one lartesertib-related TEAE,"human, in vivo",68.2%
same,Patients with lartesertib-related grade 3 TEAEs,"human, in vivo",18.2%
same,Patients with serious TEAEs,"human, in vivo",40.9%
same,Serious TEAE maculopapular rash,"human, in vivo",9.1%
same,Serious TEAE nausea,"human, in vivo",9.1%
same,"Skin and subcutaneous tissue disorders, Grade ≥3","human, in vivo",3 (13.6) n (%)
same,"Skin and subcutaneous tissue disorders, Grade ≥4","human, in vivo",0 (0.0) n (%)
same,"Skin and subcutaneous tissue disorders, Grade ≥5","human, in vivo",0 (0.0) n (%)
same,TEAE fatigue,"human, in vivo",40.9%
same,TEAE increased blood creatinine,"human, in vivo",27.3%
same,TEAE nausea,"human, in vivo",27.3%
same,TEAE pyrexia,"human, in vivo",36.4%
same,TEAE: Abdominal pain,"human, in vivo",4 (18.2) n (%)
same,TEAE: Alanine aminotransferase increased,"human, in vivo",4 (18.2) n (%)
same,TEAE: Anemia,"human, in vivo",4 (18.2) n (%)
same,TEAE: Aspartate aminotransferase increased,"human, in vivo",4 (18.2) n (%)
same,TEAE: Blood bilirubin increased,"human, in vivo",3 (13.6) n (%)
same,TEAE: Blood creatinine increased,"human, in vivo",6 (27.3) n (%)
same,TEAE: Decreased appetite,"human, in vivo",3 (13.6) n (%)
same,TEAE: Diarrhea,"human, in vivo",4 (18.2) n (%)
same,TEAE: Fatigue,"human, in vivo",9 (40.9) n (%)
same,TEAE: Headache,"human, in vivo",3 (13.6) n (%)
same,TEAE: Lymphocyte count decreased,"human, in vivo",3 (13.6) n (%)
same,TEAE: Maculopapular rash,"human, in vivo",5 (22.7) n (%)
same,TEAE: Nausea,"human, in vivo",6 (27.3) n (%)
same,TEAE: Pyrexia,"human, in vivo",8 (36.4) n (%)
same,TEAE: Vomiting,"human, in vivo",5 (22.7) n (%)
same,"TEAEs, subjects with at least one event, Grade ≥3","human, in vivo",13 (59.1) n (%)
same,"TEAEs, subjects with at least one event, Grade ≥4","human, in vivo",1 (4.5) n (%)
same,"TEAEs, subjects with at least one event, Grade ≥5","human, in vivo",0 (0.0) n (%)
same,"Vomiting, Grade ≥3","human, in vivo",1 (4.5) n (%)
same,"Vomiting, Grade ≥4","human, in vivo",0 (0.0) n (%)
same,"Vomiting, Grade ≥5","human, in vivo",0 (0.0) n (%)
same,Changes in vital signs and triplicate electrocardiogram values,in vivo,No clinically meaningful changes
same,Patients with ≥1 treatment-related adverse events of grade ≥3,in vivo,Five patients
same,Maximum tolerated dose (MTD),"oral, continuous once daily monotherapy, suggested by BLRM",300 mg once daily
same,TEAEs leading to death,study period,No TEAEs led to death
